Our source for the IC50 and inhibition values is ChEMBL document CHEMBL4813922, “Discovery of a novel small-molecule inhibitor of Fam20C that induces apoptosis and inhibits migration in triple negative breast cancer” (Eur J Med Chem, 2021).

One may read the IC50 as the concentration at which inhibition is half-maximal. Higher therefore signals lower potency. As a reminder, the inhibition is the change of the read-out against control, counted positive when it falls.

Assay [1] has as its system MDA-MB-231. Kind of assay: Antiproliferative activity against human MDA-MB-231 cells measured by MTT assay. In kind it is functional, cell-based. A general note: Tetrazolium assays rely on reduction of a dye to a coloured formazan, in cell work by metabolically active cells.
The subject of assay [2] is MCF7. Kind of assay: Antiproliferative activity against human MCF7 cells measured by MTT assay. In kind it is functional, cell-based.
In assay [3] the target is T1, Extracellular serine/threonine protein kinase FAM20C (Homo sapiens) (UniProt Q8IXL6).
T1 sequence (whole entry): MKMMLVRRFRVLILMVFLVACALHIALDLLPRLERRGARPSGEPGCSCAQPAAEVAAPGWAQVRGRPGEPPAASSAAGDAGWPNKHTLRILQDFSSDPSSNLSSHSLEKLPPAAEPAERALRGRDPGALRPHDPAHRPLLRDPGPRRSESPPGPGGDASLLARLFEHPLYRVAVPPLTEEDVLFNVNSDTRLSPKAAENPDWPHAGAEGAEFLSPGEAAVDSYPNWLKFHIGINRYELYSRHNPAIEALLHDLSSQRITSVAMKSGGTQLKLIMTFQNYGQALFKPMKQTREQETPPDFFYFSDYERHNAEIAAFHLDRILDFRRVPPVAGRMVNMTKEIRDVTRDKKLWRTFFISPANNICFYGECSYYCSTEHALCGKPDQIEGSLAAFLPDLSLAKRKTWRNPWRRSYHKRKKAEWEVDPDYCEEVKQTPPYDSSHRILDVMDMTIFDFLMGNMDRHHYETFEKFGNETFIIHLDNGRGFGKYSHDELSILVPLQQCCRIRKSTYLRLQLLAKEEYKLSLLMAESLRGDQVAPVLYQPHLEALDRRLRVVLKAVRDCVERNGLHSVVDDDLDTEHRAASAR
Kind of assay: Inhibition of Fam20C (unknown origin) assessed as reduction in inorganic phosphate release in presence of ATP at 10 uM measured by Malachite green phosphate staining based micro plate reader assay relative to control.

Assay [4] relates to MDA-MB-468. Kind of assay: Antiproliferative activity against human MDA-MB-468 cells measured by MTT assay. Type of assay: functional, cell-based.

`COc1ccc(Nc2cc(C(F)(F)F)nc(Nc3ccc(NS(=O)(=O)c4ccccc4OC(F)(F)F)cc3)n2)cc1`: the IC50 in assay [1] was 32.9 µM; in assay [2], 14 µM; in assay [4], more than 50 µM. The inhibition in assay [3] was 18%.

With `COc1ccc(C(=O)Nc2ccc(Nc3nc(C)cc(Nc4cc(OC)c(OC)c(OC)c4)n3)cc2)cc1`, the IC50 in assay [1] was 7.2 µM; in assay [2] it was more than 50 µM; in assay [4] it was 3.62 µM. Besides, the inhibition in assay [3] is 49%.

`COc1ccc(Nc2cc(C(F)(F)F)nc(Nc3ccc(NS(=O)(=O)c4c(Cl)cc(C)cc4OC)cc3)n2)cc1`: the half-inhibitory concentration (IC50) in assay [1], in assay [2] and in assay [4] was more than 50 µM throughout. Also, the inhibition in assay [3] turned out to be 11%.

With `Cc1cc(Nc2ccc(F)cc2)nc(Nc2ccc(NS(=O)(=O)c3ccc(C(F)(F)F)cc3)cc2)n1`, the IC50 worked out at 17.5 µM in assay [1], 18 µM in assay [2] and 32.3 µM in assay [4]. The inhibition in assay [3] came to 24%.

As to `COc1ccc(S(=O)(=O)Nc2ccc(Nc3nc(C)cc(Nc4ccc(OC)c(O)c4)n3)cc2)cc1`, the concentration for half-maximal inhibition (IC50) in assay [1], in assay [2] and in assay [4] was more than 50 µM throughout. For the same compound, in assay [3], the inhibition was 11%.

As to `COc1ccc(Nc2cc(C)nc(Nc3ccc(NS(=O)(=O)c4ccccc4Cl)cc3)n2)cc1`, the IC50 in assay [1] is 15.3 µM; in assay [2], more than 50 µM; in assay [4] it was more than 50 µM. For the same compound, in assay [3], the inhibition came out at 40%.

In the case of `COc1ccc(Nc2ccc(Nc3nc(C)cc(Nc4ccc(OC)cc4)n3)cc2)cc1`, the IC50 in assay [1], in assay [2] and in assay [4] was more than 50 µM throughout. The inhibition in assay [3] was determined as 14%.

`COc1ccc(Nc2cc(C(F)(F)F)nc(Nc3ccc(NS(=O)(=O)c4ccc(OC)cc4)cc3)n2)cc1`: the half-maximal inhibitory concentration (IC50) in assay [1] was 21.2 µM; in assay [2], more than 50 µM; in assay [4], more than 50 µM. The inhibition in assay [3] worked out at 43%.

Consider `COc1ccc(Nc2cc(C(F)(F)F)nc(Nc3ccc(NS(=O)(=O)c4ccccc4Cl)cc3)n2)cc1`, for which the values for the half-maximal inhibitory concentration (IC50) in assay [1], in assay [2] and in assay [4] were 43.6 µM, more than 50 µM and more than 50 µM, respectively. In addition, the inhibition in assay [3] is 21%.

For `COc1ccc(Nc2ccnc(Nc3ccc(NS(=O)(=O)c4ccc(OC)cc4)cc3)n2)cc1`, the half-inhibitory concentration (IC50) is 6.87 µM in assay [1], 29 µM in assay [2] and 14.8 µM in assay [4]. In assay [3], the inhibition was 25%.

As to `Cc1cc(Nc2ccc(F)cc2)nc(Nc2ccc(NS(=O)(=O)c3ccccc3OC(F)(F)F)cc2)n1`, the values for the IC50 in assay [1], in assay [2] and in assay [4] were 23.8 µM, more than 50 µM and 42.2 µM, respectively. Further, the inhibition in assay [3] was 23%.

Consider `COc1ccc(Nc2ccnc(Nc3ccc(NS(=O)(=O)c4ccc(C(F)(F)F)cc4)cc3)n2)cc1`, for which the IC50 in assay [1] was 27.2 µM; in assay [2], 34.8 µM; in assay [4] it was more than 50 µM. For the same compound, the inhibition in assay [3] is 18%.

With `COc1ccc(Nc2cc(C)nc(Nc3ccc(NS(=O)(=O)c4c(Cl)cc(C)cc4OC)cc3)n2)cc1`, the half-maximal inhibitory concentration (IC50) in assay [1], in assay [2] and in assay [4] was more than 50 µM throughout. In assay [3], the inhibition is 12%.

Turning to `COc1cc(Nc2ccnc(Nc3ccc(NS(=O)(=O)c4ccc(C)cc4)cc3)n2)cc(OC)c1OC`, the results for the IC50 in assay [1], in assay [2] and in assay [4] were 17.3 µM, more than 50 µM and 46.8 µM, respectively. In assay [3], the inhibition was 28%.

Turning to `COc1ccc(Nc2cc(C(F)(F)F)nc(Nc3ccc(NS(=O)(=O)c4ccc(C(F)(F)F)cc4)cc3)n2)cc1`, the IC50 in assay [1] turned out to be 23.3 µM; in assay [2] it was 17.3 µM; in assay [4], 25.3 µM. Besides, the inhibition in assay [3] is 19%.

With `COc1cc(C)cc(Cl)c1S(=O)(=O)Nc1ccc(Nc2nc(C)cc(Nc3ccc(F)cc3)n2)cc1`, the IC50 in assay [1], in assay [2] and in assay [4] was more than 50 µM each time. Also, the inhibition in assay [3] came to 12%.

`Cc1ccc(S(=O)(=O)Nc2ccc(Nc3nc(Nc4ccc(F)cc4)cc(C(F)(F)F)n3)cc2)c(Cl)c1`: the results for the IC50 in assay [1], in assay [2] and in assay [4] were 27.8 µM, more than 50 µM and more than 50 µM, respectively. Moreover, the inhibition in assay [3] amounted to 18%.

Turning to `COc1ccc(C(=O)Nc2ccc(Nc3nccc(Nc4ccc(OC)cc4C)n3)cc2)cc1`, the IC50 was 23.3 µM in assay [1], more than 50 µM in assay [2] and more than 50 µM in assay [4]. Further, in assay [3], the inhibition stood at 23%.

In the case of `O=S(=O)(Nc1ccc(Nc2nc(Nc3ccc(F)cc3)cc(C(F)(F)F)n2)cc1)c1ccccc1OC(F)(F)F`, the IC50 in assay [1] was 20.8 µM; in assay [2], 16.7 µM; in assay [4], more than 50 µM. The inhibition in assay [3] was 24%.

Regarding `COc1ccc(S(=O)(=O)Nc2ccc(Nc3nccc(-c4ccccc4)n3)cc2)cc1`, the IC50 in assay [1], in assay [2] and in assay [4] was more than 50 µM in each case. Further, in assay [3], the inhibition turned out to be 10%.

`COc1ccc(Nc2ccnc(Nc3ccc(NS(=O)(=O)c4ccc(C)cc4)cc3)n2)cc1`: the values for the IC50 in assay [1], in assay [2] and in assay [4] were 21.2 µM, more than 50 µM and more than 50 µM, respectively. For the same compound, in assay [3], the inhibition stood at 28%.

Take `O=S(=O)(Nc1ccc(Nc2nc(Nc3ccc(F)cc3)cc(C(F)(F)F)n2)cc1)c1ccc(C(F)(F)F)cc1`: the values for the IC50 in assay [1], in assay [2] and in assay [4] were more than 50 µM, 17.2 µM and more than 50 µM, respectively. The inhibition in assay [3] stood at 15%.
